According to patent US20250017979A1, “METHODS AND COMPOSITIONS FOR IMPROVING IN VIVO SURVIVAL OF MIDBRAIN DOPAMINE NEURONS” (MEMORIAL SLOAN-KETTERING CANCER CENTER, priority 2022, published 2025):

Experiments:
[1] = system: rodent GSK3β homologs; settings: cited from earlier work
[2] = system: NURR1::H2B-GFP sorted neurons; test: TNFα / adalimumab treatment of day 25 NURR1::H2B-GFP sorted dopamine neurons in vitro (immunofluorescence, western blot, qRT-PCR); type: cell-based, human; settings: co-treatment with TNFα and adalimumab (10 μg/ml), 24 hours
Description: hESC differentiation toward DA neurons. Midbrain dopaminergic neuron differentiation was performed using H9 hESCs, which include Nurr1::GFP. hESCs were grown on VTN-N (Thermo Fisher Scientific)-coated 6-well plates in E8-essential medium. Cells were maintained at 37° C., 5% CO2. hESCs were differentiated with an optimized protocol from a previously reported study (Kim et al., 2021, Cell Stem Cell February 4; 28 (2): 343-355.c5; Riessland et al., 2019, Cell Stem Cell. October 3; 25 (4): 514-530.c8). At day 25 of differentiation from hPSCs iCas9/NURR1::GFP hPSC lines containing sgRNA-pool libraries and sgRNA for dTomato and p53 hPSCs, GFP and dTomato expressed dopamine neurons were sorted using flow cytometry associated cell sorting (FACS). […] TNF-α neutralizing antibody was employed either to co-injection (1 mg/ml) or in vitro cultured dopamine neuron (10 μg/ml).

[3] = system: CD marker sorted dopamine neurons; test: 1-month survival of CD49e-low/CD184-high sorted dopamine neuron grafts in striatum of NSG mice, co-injection, stereology; type: in vivo
Description: hESC differentiation toward DA neurons. Midbrain dopaminergic neuron differentiation was performed using H9 hESCs, which include Nurr1::GFP. hESCs were grown on VTN-N (Thermo Fisher Scientific)-coated 6-well plates in E8-essential medium. Cells were maintained at 37° C., 5% CO2. hESCs were differentiated with an optimized protocol from a previously reported study (Kim et al., 2021, Cell Stem Cell February 4; 28 (2): 343-355.c5; Riessland et al., 2019, Cell Stem Cell. October 3; 25 (4): 514-530.c8). At day 25 of differentiation from hPSCs iCas9/NURR1::GFP hPSC lines containing sgRNA-pool libraries and sgRNA for dTomato and p53 hPSCs, GFP and dTomato expressed dopamine neurons were sorted using flow cytometry associated cell sorting (FACS). The sorted hPSCs were either injected into mice or cultured for subsequent experiments until use. Furthermore, double sorting approach with CD49e-low and CD184-high was applied to enrich post-mitotic dopamine neuron at day 25 differentiation derived from hPSC using FACS, and sorted cells were used for transplantation and in vitro culture. TNF-α neutralizing antibody was employed either to co-injection (1 mg/ml) or in vitro cultured dopamine neuron (10 μg/ml).
Intracranial transplantation. hESCs-derived DA neurons that were sorted based on either NURR1::H2B-GFP or CD49e low and CD184 high were resuspended in 100,000+ cells/μL in neurobasal medium with 200 mM L-glutamine and 100 mM ascorbic acid (AA) transplantation medium (without human albumin or kedbumin 25%). […]
Stereological analysis. For short-term survival studies, unbiased stercological counts of NURR1::H2B-GFP DA neurons within the striatum (AP+0.5, ML+/−1.8, DV −3.4 to −3.3 from dura) were performed using stereological principles and analyzed with StereoInvestigator software (Microbrightfield, Williston, VT, USA), as previously described. […] For each tissue section analyzed, section thickness was assessed in each sampling site and guard zones of 1 μm were used at the top and bottom of each section. […]

[4] = system: amphetamine-induced rotation behaviors; test: D-amphetamine induced rotation assay in unilateral 6-OHDA lesioned PD mouse model after grafting; type: in vivo, NSG mice
Description: (§1) 6-OHDA mouse model. Briefly, adult female and male NSG mice (6-12 weeks) were anesthetized with 1%-2% isoflurane mixed in oxygen. 1 μL 6-OHDA (3 mg/ml, in saline with 1% ascorbic acid) was directly injected into the right side of substantial nigra (anterior-posterior [AP]=−2.9 mm, lateral [ML]=1.1 mm, vertical [DV]=4.5 mm, from dura) with rate of 0.5-1 μL per minute to generate unilateral toxin Parkinsonian mouse model. Animals with amphetamine-induced rotation at >6 rotations per min were selected for cell transplantation 4 weeks after 6-OHDA-lesion surgery. Animals were randomly grouped and transplanted with CD sorted neurons vs. CD sorted neurons+adalimumab vs. PBS (sham surgery control).
d-amphetamine induced rotation behavior assays. Amphetamine-induced rotation tests were performed twice before transplantation, and 1, 2, 3, 4, 5, 6 months after transplantation. The mice were injected intraperitoneally with a d-amphetamine in saline (Sigma, 10 mg/kg). After 10 minutes, the rotation

[5] = system: CD marker sorted dopamine neurons; test: Histology and stereology of dopamine neuron grafts at 6 months in 6-OHDA mice; type: in vivo, NSG mice
Description: as §1
Immunohistochemistry. Histology on tissues from mice was performed on frozen sections from xenografts. Mice were anesthetized with pentobarbital and transcardically perfused using heparinized (10 U/mL) PBS (pH 7.4), followed by 4% paraformaldehyde in PBS. The liquid is administered using peristaltic pump to control the rate of the solution delivery to the system. Tissues were post-fixed in ice cold 4% paraformaldehyde for 18 hours sharp and transferred to 30% sucrose until the tissue sink (typically 3-6 days post-), followed by snap freezing in O.C.T (Fisher Scientific, Pittsburgh, PA) or Neg-50 (Thermo Scientific). Brain tissues are all sectioned in 30 μm thick coronal sections using a cryostat and mounted onto a Superfrost plus microscope slides (Fisher Scientific). All the slides are stored at −80° C. for long-term until use. To process for immunolabeling, tissues are washed twice with 1×PBS, followed by permeabilization in 0.5% Triton X-100 in PBS for 10 minutes. Living cells in culture were directly fixed in 4% paraformaldehyde for 18 min, followed by 10 min permeabilization in 0.5% Triton X-100 in PBS. For labeling, cells or tissue sections were immunostained with primary antibodies of interest in 2% BSA in 0.25% Triton X-100 in PBS at 4° C. overnight. Next day appropriate Alexa Fluor secondary antibodies are conjugated at room temperature for 1 hr at a dilution of 1:1,000. Nuclei were counterstained by DAPI.
Stereological analysis. For short-term survival studies, unbiased stercological counts of NURR1::H2B-GFP DA neurons within the striatum (AP+0.5, ML+/−1.8, DV −3.4 to −3.3 from dura) were performed using stereological principles and analyzed with StereoInvestigator software (Microbrightfield, Williston, VT, USA), as previously described. […] For each tissue section analyzed, section thickness was assessed in each sampling site and guard zones of 1 μm were used at the top and bottom of each section. […] For analysis, at least 2-8 sections were evaluated for analysis. […]

[6] = 6 months old graft, TH+ population
[7] = 6 months post transplantation, vs PBS co-injection

Cc1c[nH]c(-c2cnc(NCCNc3ccc(C#N)cn3)nc2-c2ccc(Cl)cc2Cl)n1 [CHIR99021, 6-(2-(4-(2,4-dichlorophenyl)-5-(4-methyl-1H-imidazol-2-yl)pyrimidin-2-ylamino)ethylamino) nicotinonitrile]
IC50 values against rodent GSK3β homologs [1]: nanomolar

adalimumab
TNFα-induced inductions of p53 and p53 downstream genes (p21, PUMA) [2]: abolished | Stereological counts of NURR1::GFP+ cells ([3]; 1 month post grafting, mean and S.E.M, n=5, p=0.01 vs PBS): 12,423 (mean)+1,859 (S.E.M) per 100,000 cells injected | volume of the graft ([3]; 1 month post grafting, per 100,000 cells, mean, n=5, p=0.0085): 0.1175 mm^3 | survival of CD marker sorted dopamine neurons in vivo post-transplantation ([3]; co-injection (1 mg/ml), vs PBS): significantly improved | functional recovery of amphetamine-induced rotation ([4]; 6 months post grafting, CD sorted neurons with or without adalimumab): Robust functional recovery | time course and completeness of functional rescue vs CD sorted neurons alone ([4]; adalimumab co-injected mDA neurons, 1-6 months): trend towards an earlier and more complete functional rescue | fraction of CALB1 expressing A10 dopamine neuron subtype [5, 6]: without affecting | proportion of ALDH1A1+ A9 mDA neuron subtype [5, 6]: significant increase | overall graft size [5, 7]: significantly increased | total numbers of surviving dopamine neurons (TH) [5, 7]: significantly increased
